This is an account of results in patent publication US7709482B2, “Polycyclic heteroaryl substituted triazoles useful as Axl inhibitors” (Rigel Pharmaceuticals, Inc., priority 2006, dated 2010).

The target of one test is T1, Axl (Homo sapiens, UniProt P30530).
T1 construct: endogenous in cells; host or cells: HeLa cells
T1 sequence (P30530 26-894): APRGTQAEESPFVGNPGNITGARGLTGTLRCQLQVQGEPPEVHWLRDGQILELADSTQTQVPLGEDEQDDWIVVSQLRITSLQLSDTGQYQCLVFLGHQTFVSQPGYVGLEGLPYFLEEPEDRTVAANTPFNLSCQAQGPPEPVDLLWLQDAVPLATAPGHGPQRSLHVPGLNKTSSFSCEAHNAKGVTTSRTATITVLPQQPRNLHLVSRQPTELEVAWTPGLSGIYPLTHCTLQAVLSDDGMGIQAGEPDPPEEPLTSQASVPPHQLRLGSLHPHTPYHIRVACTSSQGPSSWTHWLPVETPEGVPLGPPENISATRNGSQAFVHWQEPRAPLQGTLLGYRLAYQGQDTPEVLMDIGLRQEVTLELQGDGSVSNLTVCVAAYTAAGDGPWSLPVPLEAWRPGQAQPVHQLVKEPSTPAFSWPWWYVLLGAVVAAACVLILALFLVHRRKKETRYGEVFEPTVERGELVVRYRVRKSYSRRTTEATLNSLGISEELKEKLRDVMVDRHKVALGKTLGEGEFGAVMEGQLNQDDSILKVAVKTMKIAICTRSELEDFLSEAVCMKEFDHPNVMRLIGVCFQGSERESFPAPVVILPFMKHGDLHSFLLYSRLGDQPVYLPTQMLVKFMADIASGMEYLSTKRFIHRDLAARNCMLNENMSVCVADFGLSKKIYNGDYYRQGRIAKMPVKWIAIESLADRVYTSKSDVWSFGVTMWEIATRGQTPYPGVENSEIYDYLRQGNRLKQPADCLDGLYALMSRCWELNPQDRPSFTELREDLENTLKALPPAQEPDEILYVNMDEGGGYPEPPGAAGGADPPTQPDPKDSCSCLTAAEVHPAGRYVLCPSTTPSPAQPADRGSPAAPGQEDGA
Kind of test: Phospho-Akt In-Cell Western Assay (inhibition of Axl activity after Axl-antibody cross-linking). The test is classed as cell-based. The following applies: Hela cells, phospho-Akt chemiluminescence normalized to relative cell number; compounds of formula (Ia), Table 1; read-out: IC50. In outline:
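Phospho-Akt was detected in formaldehyde-fixed cells by in-cell immunostaining with HRP chemiluminescence. Before fixation, HeLa cells kept 24 h in low-serum medium containing 500 ng/mL Axl/Fc received compound for 1 h at 37 °C, followed by 5-min Axl activation through antibody clustering.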
Regarding `CS(=O)(=O)Nc1cccc(-c2ccc(Nc3nc(N)n(-c4cc5c(nn4)-c4ccccc4CCC5)n3)cn2)c1` [Compound 98, 1-(6,7-dihydro-5H-benzo[6,7]cyclohepta[1,2-c]pyridazin-3-yl)-N^3-(6-(3-methylsulfonamidylphenyl)-pyridine-3-yl)-1H-1,2,4-triazole-3,5-diamine], the half-inhibitory concentration (IC50) (commonly the concentration that inhibits the measured activity by half) is greater than 20000 nM.

In the case of `CC(C)N1CCN(c2ccc(Nc3nc(N)n(-c4cc5c(nn4)-c4ccccc4CCC5)n3)cc2F)CC1` [Compound 111, 1-(6,7-dihydro-5H-benzo[6,7]cyclohepta[1,2-c]pyridazin-3-yl)-N^3-(3-fluoro-4-(N-isopropylpiperazin-1-yl)phenyl)-1H-1,2,4-triazole-3,5-diamine], the IC50 was less than 1000 nM.

Regarding `COc1ccc2c(c1)CCCc1cc(-n3nc(Nc4ccc(OCCN5CCCC5)c(F)c4)nc3N)nnc1-2` [Compound 56, 1-(6,7-dihydro-5H-9-methoxybenzo[6,7]cyclo-hepta[1,2-c]pyridazin-3-yl)-N^3-(3-fluoro-4-(2-(pyrrolidin-1-yl)ethoxy)phenyl)-1H-1,2,4-triazole-3,5-diamine], the 50% inhibitory concentration (IC50) lay within 1000 to 10000 nM.

As to `Nc1nc(Nc2ccc(N3CCN(C4CC5CCC4C5)CC3)nc2)nn1-c1cc2c(nn1)-c1ccccc1CCC2` (stereo not shown) [Compound 8, 1-(6,7-dihydro-5H-benzo[6,7]cyclohepta[1,2-c]pyridazin-3-yl)-N^3-(6-(4-(bicyclo[2.2.1]heptan-2-yl)piperazin-1-yl)pyridin-3-yl)-1H-1,2,4-triazole-3,5-diamine], the IC50 fell in the range of 1000 to 10000 nM.

On to `Nc1nc(Nc2ccc(N3CCC(N4CCCC4)CC3)cc2)nn1-c1cc2c(nn1)-c1ccccc1CCC2` [Compound 101, 1-(6,7-dihydro-5H-benzo[6,7]cyclohepta[1,2-c]pyridazin-3-yl)-N^3-(4-(4-pyrrolidin-1-ylpiperidinyl)phenyl)-1H-1,2,4-triazole-3,5-diamine], for which the IC50 is less than 1000 nM.

For the compound `Nc1nc(Nc2ccc(OCCN3CCCC3)c(Cl)c2)nn1-c1cc2c(nn1)-c1ccccc1CCC2` [Compound 47, 1-(6,7-dihydro-5H-benzo[6,7]cyclohepta[1,2-c]pyridazin-3-yl)-N^3-(3-chloro-4-(2-(pyrrolidin-1-yl)ethoxy)phenyl)-1H-1,2,4-triazole-3,5-diamine], the half-maximal inhibitory concentration (IC50) is 1000 to 10000 nM.

For the compound `Nc1cccc(-c2ccc(Nc3nc(N)n(-c4cc5c(nn4)-c4ccccc4CCC5)n3)cn2)c1` [Compound 95, 1-(6,7-dihydro-5H-benzo[6,7]cyclohepta[1,2-c]pyridazin-3-yl)-N^3-(6-(3-aminophenyl)pyridine-3-yl)-1H-1,2,4-triazole-3,5-diamine], the IC50 was greater than 20000 nM.

On to `Nc1nc(Nc2ccc3c(c2)CCC(NC2CC4CCC2C4)CC3)nn1-c1cc2c(nn1)-c1ccccc1CCC2` (stereo not shown) [Compound 23, 1-(6,7-dihydro-5H-benzo[6,7]cyclohepta[1,2-c]pyridazin-3-yl)-N^3-(7-((bicyclo[2.2.1]heptan-2-yl)amino)-6,7,8,9-tetrahydro-5H-benzo[7]annulene-2-yl)-1H-1,2,4-triazole-3,5-diamine], for which the half-inhibitory concentration (IC50) was less than 1000 nM.

In the case of `Nc1nc(Nc2ccc(OCCN3CCCC3)cc2)nn1-c1cc2c(nn1)-c1ccccc1CCC2` [Compound 1, 1-(6,7-dihydro-5H-benzo[6,7]cyclohepta[1,2-c]pyridazin-3-yl)-N^3-(4-(2-(pyrrolidin-1-yl)ethoxy)phenyl)-1H-1,2,4-triazole-3,5-diamine], the IC50 is less than 1000 nM.

Take `Nc1nc(Nc2ccc(N3CCC(N)CC3)c(F)c2)nn1-c1cc2c(nn1)-c1ccccc1CCC2` [Compound 87, 1-(6,7-dihydro-5H-benzo[6,7]cyclohepta[1,2-c]pyridazin-3-yl)-N^3-(3-fluoro-4-(4-aminopiperidin-1-yl)phenyl)-1H-1,2,4-triazole-3,5-diamine]: the IC50 is less than 1000 nM.

In the case of `CCN(CC)C1CCN(c2ccc(Nc3nc(N)n(-c4cc5c(nn4)-c4ccccc4CCC5)n3)cc2F)C1` (stereo not shown) [Compound 32, 1-(6,7-dihydro-5H-benzo[6,7]cyclohepta[1,2-c]pyridazin-3-yl)-N^3-(3-fluoro-4-(3-(diethylamino)pyrrolidin-1-yl)phenyl)-1H-1,2,4-triazole-3,5-diamine], the IC50 was less than 1000 nM.

Turning to `Nc1nc(Nc2ccc(N3CCC(N4CCCC4)CC3)cc2)nn1-c1cc2c(nn1)-c1ccccc1SCC2` [Compound 120, 1-(6,7-dihydro-5H-benzo[2,3]thiepino[4,5-c]pyridazin-3-yl)-N^3-(4-(4-pyrrolidin-1-ylpiperidinyl)phenyl)-1H-1,2,4-triazole-3,5-diamine], the IC50 is less than 1000 nM.

With `Nc1nc(Nc2ccc(N3CCN([C@H]4CC5CCC4C5)CC3)cc2)nn1-c1ncc2c(n1)-c1ccccc1CCC2` (stereo partly drawn) [Compound 46, 1-(6,7-dihydro-5H-benzo[6,7]cyclohepta[1,2-d]pyrimidin-2-yl)-N^3-(4-(4-(2S)-bicyclo[2.2.1]heptan-2-yl)-piperazinylphenyl)-1H-1,2,4-triazole-3,5-diamine], the IC50 was less than 1000 nM.

The test is the same for the next values; noted with them: Hela cells, phospho-Akt chemiluminescence normalized to relative cell number; compounds of formula (Ib), Table 2; read-out: IC50.
With `CC1CN(c2ccc(Nc3nc(N)nn3-c3cc4c(nn3)-c3ccccc3CCC4)cc2)CC(C)N1` (stereo not shown) [Compound 160, 1-(6,7-dihydro-5H-benzo[6,7]cyclohepta[1,2-c]pyridazin-3-yl)-N^5-(4-(3,5-dimethylpiperazin-1-yl)phenyl)-1H-1,2,4-triazole-3,5-diamine], the IC50 was less than 1000 nM.

In the case of `Nc1nc(Nc2ccc(CN3CCN(C4CCCC4)CC3)cc2)n(-c2cc3c(nn2)-c2ccccc2CCC3)n1` [Compound 166, 1-(6,7-dihydro-5H-benzo[6,7]cyclohepta[1,2-c]pyridazin-3-yl)-N^5-(4-((4-cyclopentylpiperazinyl)methyl)phenyl)-1H-1,2,4-triazole-3,5-diamine], the IC50 is 1000 to 10000 nM.

The same test, now with this note: inhibition of Axl activity; Table 1, compounds of formula (Ia); read-out: IC50.
As for `CCN(CC)C1CCN(CC=Cc2ccc(Nc3nc(N)n(-c4cc5c(nn4)-c4ccccc4CCC5)n3)cc2)C1` (stereo not shown) [Compound 201, 1-(6,7-dihydro-5H-benzo[6,7]cyclohepta[1,2-c]pyridazin-3-yl)-N^3-(4-(3-diethylaminopyrrolidin-1-ylprop-1-enyl)phenyl)-1H-1,2,4-triazole-3,5-diamine], the IC50 is less than 1000 nM.

For `Nc1nc(Nc2ccc3c(c2)CCC(N2CC[C@@H](O)C2)CC3)nn1-c1cc2c(nn1)-c1ccccc1CCC2` (stereo partly drawn) [Compound 219, 1-(6,7-dihydro-5H-benzo[6,7]cyclohepta[1,2-c]pyridazin-3-yl)-N^3-(7-(3-(R)-hydroxypyrrolidin-1-yl)-6,7,8,9-tetrahydro-5H-benzo[7]annulene-2-yl)-1H-1,2,4-triazole-3,5-diamine], the IC50 was less than 1000 nM.

Consider `Nc1nc(Nc2cnc(N3CCC(CN4CCCCC4)CC3)nc2)nn1-c1cc2c(nn1)-c1ccccc1CCC2` [Compound 148, 1-(6,7-dihydro-5H-benzo[6,7]cyclohepta[1,2-c]pyridazin-3-yl)-N^3-(2-(4-(piperidin-1-ylmethyl)piperidin-1-yl)pyrimidin-5-yl)-1H-1,2,4-triazole-3,5-diamine], for which the IC50 was 1000 to 10000 nM.

Consider `CN1CCN(C2CCN(c3ccc(Nc4nc(N)n(-c5cc6c(nn5)-c5ccccc5CCC6)n4)cc3F)CC2)CC1` [Compound 179, 1-(6,7-dihydro-5H-benzo[6,7]cyclohepta[1,2-c]pyridazin-3-yl)-N^3-(3-fluoro-4-(4-(4-methylpiperazin-1-yl)piperidin-1-yl)phenyl)-1H-1,2,4-triazole-3,5-diamine], for which the half-inhibitory concentration (IC50) was less than 1000 nM.

As for `Nc1nc(Nc2ccc(C3CCN(C4CC5CCC4C5)CC3)cc2)nn1-c1cc2c(nn1)-c1ccccc1SCC2` (stereo not shown) [Compound 236, 1-(6,7-dihydro-5H-benzo[2,3]thiepino[4,5-c]pyridazin-3-yl)-N^3-(4-(1-bicyclo[2.2.1]heptan-2-yl)-piperidin-4-ylphenyl)-1H-1,2,4-triazole-3,5-diamine], the IC50 was less than 1000 nM.

On to `Nc1nc(Nc2ccc3c(c2)CCC(NC2CCC2)CC3)nn1-c1cc2c(nn1)-c1ccccc1CCC2` (stereo not shown) [Compound 229, 1-(6,7-dihydro-5H-benzo[6,7]cyclohepta[1,2-c]pyridazin-3-yl)-N^3-(7-cyclobutylamino-6,7,8,9-tetrahydro-5H-benzo[7]annulene-2-yl)-1H-1,2,4-triazole-3,5-diamine], for which the IC50 is less than 1000 nM.

With `Nc1nc(Nc2ccc(C=CCN3CCC(N4CCCC4)CC3)cc2)nn1-c1cc2c(nn1)-c1ccccc1CCC2` [Compound 203, 1-(6,7-dihydro-5H-benzo[6,7]cyclohepta[1,2-c]pyridazin-3-yl)-N^3-(4-(4-pyrrolidin-1-ylpiperidin-1-ylprop-1-enyl)phenyl)-1H-1,2,4-triazole-3,5-diamine], the IC50 is less than 1000 nM.
